Test results reported in patent publication US4499104A, “Imidazole compound, the process for its preparation, and therapeutically active compositions containing same” (priority 1976, dated 1985).

Assays:
[1] = Anticonvulsive activity against cardiazole; assay type: in vivo, Rockland-Ocefa mice; conditions: for Protection from convulsivant cardiazole, first value: first of two values; for Protection from convulsivant cardiazole, second value: second of two values
Experimental: Rockland-Ocefa mice of both sexes weighing 22±3 g and fasting for 16 hours were used.

human = test: Human therapy; assay type: in vivo
rats [2] = test: Chronic toxicity, second experiment (5 months); assay type: in vivo, Wistar-Ocefa rats; conditions: for cholesterol: male rats
Experimental: (§1) Wistar-Ocefa rats of both sexes weighing 70-90 g were used, divided into groups of 30 animals (15 males and 15 females) to a total of […].
(§2) Chlorophenazole and phenylbutazone (reference drug) were administered orally for a period of 60 days in doses of 30-60 mg/kg of chlorophenazole and 8-160 mg/kg of phenylbutazone (first experiment) and for a period of 5 months in doses of 6-12 mg/kg of chlorophenazole and 16 mg/kg of phenylbutazone (second experiment).
(§3) The following parameters were determined periodically: behavior, general state, food consumption, body weight, red blood cell number, white blood cell number, leucocite formula, hemoglobin, hematocrit, globular value, total proteins, glycemia, azotemia, cholesterol, total lipids, triglycerides, creatinine, GOT, GPT, urine analysis. At the end of the experiment the animals were sacrificed, their general state was observed, the following organs were weighed: liver, spleen, kidneys, supranenes, ovary and testicles, lungs, heart, stomach.

[3] = Antipyretic activity, hyperthermia by beer yeast in rat; assay type: in vivo, Wistar stock; conditions: oral, 1/10 of DL50; chlorophenazole 50 mg/kg, phenylbutazone 35 mg/kg
Experimental: It was then measured in the rat using 10 animals of Wistar stock per group weighing 170-200 g, made hyperthermal by subcutaneous injection of a 10% beer yeast suspension in distilled water.
The compounds awere administered orally 60 minutes after the induction of fever in doses equal to 1/10 of the DL50. Readings were taken at 30 minute intervals for 5 hours.

Rat [4] = test: Acute toxicity, rat
in vivo = conditions: rat
[5] = Hot plate method (thermal stimulus), analgesic activity; assay type: in vivo, Male mice
Experimental: This is based on the time (seconds) taked by the mouse for removing his paws from a plate heated to 56° C. Male mice were used of weight 25 to 27 g, preselected so that all reacted in a time less than 20 seconds.
The reaction time was measured 15, 30 and 60 minutes after administering the drugs. The chlorophenazole was tested orally and subcutaneously, both alone and associated with morphine hydrochloride. […] (FIGS. 2 and 3).

[6] = Pulminary edema by carrageen (Sancilio method, pleural exudate); assay type: in vivo, Wistar-Roux-Ocefa rats
Experimental: Using the Sancilio method (Sancilio F. L., J. Pharmacol. Exptl. Therap., 168, 199 (1969); Sancilio L. F. Rodrigues R., Proc. Soc. Exptl. Biol. Med., 123, 707 (1969); Sancilio L. F. Lawrence R., Proc. Soc. Exptl. Biol. Med., 127, 597 (1968), pulminary irritation was induced in Wistar-Roux-Ocefa rats and the capacity of chlorophenazole and other drugs to prevent production of pleural exudate was measured. 5 ml of a 0.025% carrageen solution and 0.075% Evans blue were injected into the pleurea.
The action of chlorophenazole, mepyrazole and phenylbutazone were evaluated from the quantity of exudate present in the pleural cavity after 1 and 6 hours.

Acute toxicity, mouse = conditions: in vivo, read-out: DL50 and L.F.
rats [7] = test: Chronic toxicity, first experiment (60 days); assay type: in vivo, Wistar-Ocefa rats; conditions: 60 days
Experimental: as §1, §2, §3

[8] = Edema by carrageen in normal and adrenoprival (suprarenectomised) rats; assay type: in vivo, rat; parameters: Edema by carrageen: unit not given beside the values
Experimental: A 1% physiological solution of carrageen was used. Rats of the Wistar-Roux-Ocefa stock having a weight of 150±30 g were used. The drugs were suspended in 1% carboxymethylcellulose or dissolved in distilled water and administered orally one hour before the inflammatory agent in a volume of 0.5 ml/100 g. The carrageen was adminstered subcutaneously in the subplanetary region of one of the rear paws. The volume of the paw was measured platysmagraphically initially and then after 1.5 hour, 3 hours and 5 hours after administering the carrageen. One inflammation unit was defined as the displacement of 0.01 ml of Hg.
The edema was evaluated as the difference in volume of the rear paw before and after the carrageen. The DE 50 was calculated by the probits method and graphically. The comparison drugs used were phenylbutazone and niflumic acid.
To evaluate if the activity of the chlorophenazole on edema by carrageen was influenced by stimulation of the suprarenes, experiments were carried out with suprarenectomised rats. Normal rats were also compared with falsely operated rats to evaluate the influence of the operational trauma.

Rat [9] = conditions: in vivo
Rabbit = test: Acute toxicity, rabbit; assay type: in vivo; conditions: intravenous injection
Experimental: (b) Rabbit: by intravenous injection DL100 =55 mg/kg

With `Cc1[nH]cnc1-c1ccc(Cl)cc1` [Chlorophenazole, 4-(p-chlorophenyl)-5-methylimidazole] the “Protection from convulsivant cardiazole, first value” (“Protection … first value” for short) ([1]; 50 mg/kg, 15') was 6.23, the “Protection from convulsivant cardiazole, second value” (from here on “Protection … second value”) ([1]; 50 mg/kg, 15') was 6.70 and the “Protection … first value” ([1]; 50 mg/kg, 30') was 10.80. The “Protection … second value” ([1]; 50 mg/kg, 30') was 8.30, the “Protection … first value” ([1]; 50 mg/kg, 90') was 8.10 and the “Protection … second value” ([1]; 50 mg/kg, 90') was 7.0. For the same compound, the “Protection … first value” ([1]; 100 mg/kg, 15') was 9.90, the “Protection … second value” ([1]; 100 mg/kg, 15') was 8.90 and the “Protection … first value” ([1]; 100 mg/kg, 30') was 13.00. For the same compound, the “Protection … second value” ([1]; 100 mg/kg, 30') was 26.40, the “Protection … first value” ([1]; 100 mg/kg, 90') was 28.70 and the “Protection … second value” ([1]; 100 mg/kg, 90') was 20.00. The “Protection … second value” ([1]; 200 mg/kg, 15') was 9.2, the “Protection … second value” ([1]; 200 mg/kg, 30') was 27.30 and the “Protection … second value” ([1]; 200 mg/kg, 90') was 30.10. For the same compound, the “framework of convulsive death” value ([1]; cardiazole and strychnine) was “does not modify the framework of convulsive death”, the premortal period ([1]; cardiazole and strychnine) was “significant elongation of the premortal period” and the “pharmacological results in human therapy” value (human) was “fully confirmed in human therapy”. The cholesterol (rats [2]; 6 mg/kg) was “significant alteration”, the glycemia (rats [2]; 12 mg/kg, female rats) was “small increase in glycemia” and the cholesterol (rats [2]; greater dose) was “not confirmed with the greater dose”. For the same compound, the “antipyretic activity relative to phenylbutazone” value [3] was “superiority over phenylbutazone”, the symptoms preceding death (Rat [4]; rat and mouse, acute toxicity) was “reduction in spontaneous motility, sedation, hypotherma, paralysis” and the “acute toxicity values and therapeutic index relative to phenylbutazone” value (Rat [4]; summary) was “well in excess of those for phenylbutazone”. For the same compound, the LD50 (in vivo; ip) was 135 mg/kg, the LD50 (in vivo; po) was 515 mg/kg and the “reaction time relative to control mice” value ([5]; 50 mg/kg oral) was “significantly prolongs the reaction time relative to the control mice”. The “effect on morphine analgesia” value ([5]; associated with morphine hydrochloride) was “evident increase exerted by the drug on morphine analgesia”, the ml of exudate ([6]; 30 mg/Kg, pleural cavity) was 3.11 mL and the “activity on pleural exudate” value ([6]; exudate after 1 and 6 hours) was “significantly active”. For the same compound, the LD50 (Acute toxicity, mouse; ip) was 175 mg/kg, the LD50 (Acute toxicity, mouse; po, os) was 534 mg/kg and the stomach appearance (rats [7]) was “distended and rose colored”. For the same compound, the cholesterol (rats [7]; larger doses) was “the same for cholesterol at the larger doses”, the “dependence of activity on the suprarenal cortex” value ([8]; adrenoprival rats) was “independent of the suprarenal cortex” and the Edema by carrageen ([8]; adrenoprival rats, 10 mg/kg, 1.5 hours) was 22. For the same compound, the Edema by carrageen ([8]; adrenoprival rats, 10 mg/kg, 3 hours) was 27, the Edema by carrageen ([8]; adrenoprival rats, 10 mg/kg, 5 hours) was 55 and the Edema by carrageen ([8]; adrenoprival rats, 20 mg/kg, 1.5 hours) was 16. The Edema by carrageen ([8]; adrenoprival rats, 20 mg/kg, 3 hours) was 18, the Edema by carrageen ([8]; adrenoprival rats, 20 mg/kg, 5 hours) was 45 and the Edema by carrageen ([8]; adrenoprival rats, 40 mg/kg, 1.5 hours) was 13. For the same compound, the Edema by carrageen ([8]; adrenoprival rats, 40 mg/kg, 3 hours) was 20, the Edema by carrageen ([8]; adrenoprival rats, 40 mg/kg, 5 hours) was 39 and the Edema by carrageen ([8]; normal rats, 10 mg/kg, 1.5 hours) was 15. It also gave an Edema by carrageen ([8]; normal rats, 10 mg/kg, 3 hours) of 35, an Edema by carrageen ([8]; normal rats, 10 mg/kg, 5 hours) of 58 and an Edema by carrageen ([8]; normal rats, 20 mg/kg, 1.5 hours) of 15. The Edema by carrageen ([8]; normal rats, 20 mg/kg, 3 hours) was 29, the Edema by carrageen ([8]; normal rats, 20 mg/kg, 5 hours) was 44 and the Edema by carrageen ([8]; normal rats, 40 mg/kg, 1.5 hours) was 15. The Edema by carrageen ([8]; normal rats, 40 mg/kg, 3 hours) was 23, the Edema by carrageen ([8]; normal rats, 40 mg/kg, 5 hours) was 42 and the “toxicity relative to niflumic acid” value (Rat [9]) was “much less toxic than the latter”. For the same compound, the DL100 (Rabbit) was 55 mg/kg and the “final framework (symptoms)” value (Rabbit) was “marked muscular hypotonia, an almost catatonic state and death by respiratory paralysis”.
